We go through four molecules from patent US20190045784A1 (priority 2016, published 2019).

Holding throughout (format): cell-based
What all share (settings): 7 days after inoculation

One assay concerns Phytophthora infestans.
A further assay relates to Botrytis cinerea. Put plainly: Activity against the grey mold Botrytis cinerea in the microtiter plate test (Botrci).
In another assay the test system is Septoria tritici. Nature of the assay: Activity against leaf blotch on wheat caused by Septoria tritici (Septtr), microtiter test.
The test system of another assay is Alternaria solani. Nature of the assay: Activity against early blight caused by Alternaria solani (Alteso), microtiter test.

Read-outs that look alike come from different tables or passages of the source.

On to `Cc1ccc(COc2ncc(F)c(N)n2)cc1` [No. I-5, 5-fluoro-2-(p-tolylmethoxy)pyrimidin-4-amine], for which the Observed efficacy is reported as 14% with Phytophthora infestans (16 ppm) and 24% in the assay on Botrytis cinerea (16 ppm).

Regarding `Cn1cc(C(=O)Nc2ccccc2-c2cc(F)c(F)c(F)c2)c(C(F)F)n1` [Fluxapyroxad, fluxapyroxad], the Observed efficacy in the assay with Phytophthora infestans (0.016 ppm) stood at 2%; in the assay on Phytophthora infestans (0.063 ppm), 18%; with Botrytis cinerea (0.016 ppm), 0%; in the assay on Septoria tritici (0.000063 ppm) it was 1%; with Septoria tritici (0.001 ppm) it was 7%; in the assay with Septoria tritici (0.004 ppm) it was 9%. The Observed efficacy is 17% in the assay with Septoria tritici (0.016 ppm), 7% with Alternaria solani (0.00025 ppm), 31% in the assay with Alternaria solani (0.004 ppm) and 69% with Alternaria solani (0.016 ppm).

In the assay on Alternaria solani (1 ppm), `Nc1nc(OCc2ccc(F)cc2)ncc1F` [No. I-4, 5-fluoro-2-(4-fluorophenylmethoxy)pyrimidin-4 amine] gave an Observed efficacy of 0%.

`Cn1c(=O)c2sc3c(=O)n(C)c(=O)c3sc2c1=O` [No. I-2, 2,6-dimethyl-1H,5H-[1,4]dithiino[2,3-c:5,6-c′]dipyrrole-1,3,5,7(2H,6H)-tetraone]: the Observed efficacy in the assay on Phytophthora infestans (0.25 ppm) is reported as 0%; in the assay on Phytophthora infestans (1 ppm) it was 28%; with Septoria tritici (0.063 ppm), 35%; in the assay with Alternaria solani (0.25 ppm), 14%.
